{"source": "paper PMC5985834", "about": "“A Testosterone Metabolite 19-Hydroxyandrostenedione Induces Neuroendocrine Trans-Differentiation of Prostate Cancer Cells via an Ectopic Olfactory Receptor” (Frontiers in Oncology, 2018)", "key": {"OR51E2 [1]": {"target": "T1, OR51E2 (Homo sapiens, UniProt Q9H255)", "T1 construct": "OR51E2 plasmid transiently transfected into Hana3A cells with CREB-luciferase reporter", "T1 sequence (Q9H255 1-320)": "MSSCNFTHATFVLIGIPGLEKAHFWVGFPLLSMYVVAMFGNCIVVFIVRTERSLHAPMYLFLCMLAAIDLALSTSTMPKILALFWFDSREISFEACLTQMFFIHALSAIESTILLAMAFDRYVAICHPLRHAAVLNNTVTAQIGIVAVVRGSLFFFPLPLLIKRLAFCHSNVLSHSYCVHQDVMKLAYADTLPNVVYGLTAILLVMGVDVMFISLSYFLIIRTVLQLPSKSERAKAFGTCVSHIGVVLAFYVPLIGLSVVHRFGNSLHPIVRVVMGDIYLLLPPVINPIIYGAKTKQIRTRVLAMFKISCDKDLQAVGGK", "experiment": "cAMP CRE-luciferase reporter assay in Hana3A cells", "assay_type": "cell-based", "conditions": "agonist, M10d medium, read-out: EC50 (potency) /"}, "OR51E2 [2]": {"target": "T1, OR51E2", "experiment": "cAMP CRE-luciferase reporter assay in Hana3A cells", "assay_type": "cell-based", "conditions": "agonist, M10d medium, max conc. 10 µM, below the EC50, unreliable", "source_text": "cAMP CRE-luciferase reporter assay in Hana3A cells on OR51E2"}}, "note": "pEC50: −log10 of the molar value. Read-outs that look alike come from different tables or passages of the source. Where a SMILES comes first, the peptide text is derived from it. [ ]: non-standard residue; d: D form."}
{"smiles": "O=C1CCCN1", "note": "[2-Pyrrolidinone]", "values": [{"measurement": "pEC50", "setting": "OR51E2 [1]; max conc. 100 µM", "result": 8.72}]}
{"smiles": "C[C@]12CC[C@H]3[C@@H](CCC4=CC(=O)CC[C@@]43CO)[C@@H]1CCC2=O", "note": "[19-OH AD, 19-hydroxyandrost-4-ene-3,17-dione]", "values": [{"measurement": "pEC50", "setting": "OR51E2 [1]; max conc. 10 µM", "result": 9.82}]}
{"smiles": "COc1ccc(NC=O)c(C(=O)CCNC(C)=O)c1", "note": "[AFMK]", "values": [{"measurement": "pEC50", "setting": "OR51E2 [1]; max conc. 3.16 mM", "result": 4.92}]}
{"smiles": "C[C@@H](N)C(=O)N[C@H](C)C(=O)O", "note": "[D-Alanyl-D-alanine] (H-[dA]-[dA]-OH)", "values": [{"measurement": "pEC50", "setting": "OR51E2 [1]; max conc. 3.16 mM", "result": 4.85}]}
{"smiles": "C[C@]12CC[C@@H]3c4ccc(O)cc4CC[C@H]3[C@@H]1C[C@@H](O)[C@@H]2O", "note": "[Estriol]", "values": [{"measurement": "EC50 (potency) /", "setting": "OR51E2 [2]", "result": 53000, "unit": "nM"}]}
{"smiles": "O=C(O)C(=O)CO", "note": "[Hydroxypyruvic acid]", "values": [{"measurement": "pEC50", "setting": "OR51E2 [1]; max conc. 316 µM", "result": 6.38}]}
{"smiles": "O=C(O)[C@@H](O)CO", "note": "[L-Glyceric acid]", "values": [{"measurement": "pEC50", "setting": "OR51E2 [1]; max conc. 1 mM", "result": 8.72}]}
{"smiles": "CC(=O)N[C@@H](CCC(=O)O)C(=O)O", "note": "[N-Acetylglutamic acid]", "values": [{"measurement": "pEC50", "setting": "OR51E2 [1]; max conc. 10 µM", "result": 9.64}]}
{"smiles": "CCCCCCCCCCCCCCCC(=O)O", "note": "[Palmitic acid]", "values": [{"measurement": "pEC50", "setting": "OR51E2 [1]; max conc. 1 mM", "result": 8.01}]}
{"smiles": "Oc1ccc(-c2[o+]c3cc(O)cc(O)c3cc2O)cc1", "note": "[Pelargonidin]", "values": [{"measurement": "pEC50", "setting": "OR51E2 [1]; max conc. 100 µM", "result": 9.38}]}
{"smiles": "COc1cc(CCC(=O)CC(=O)CCc2ccc(O)c(OC)c2)ccc1O", "note": "[Tetrahydrocurcumin]", "values": [{"measurement": "pEC50", "setting": "OR51E2 [1]; max conc. 316 µM", "result": 6.24}]}
{"smiles": "NC(N)=O", "note": "[Urea]", "values": [{"measurement": "pEC50", "setting": "OR51E2 [1]; max conc. 10 mM", "result": 7.64}]}
